In patent US20230331737A1, “MTORC1 MODULATORS AND USES THEREOF” (Aeovian Pharmaceuticals, Inc., priority 2020, published 2023):

Biological target: mTORC2 (Homo sapiens, UniProt P42345+P62942)
Experiment: mTORC2 inhibition in PC3 cells, AlphaLISA of pAKT pS473 levels

Sequence of mTORC2 (P62942 2-108 limits assumed, other chains not shown): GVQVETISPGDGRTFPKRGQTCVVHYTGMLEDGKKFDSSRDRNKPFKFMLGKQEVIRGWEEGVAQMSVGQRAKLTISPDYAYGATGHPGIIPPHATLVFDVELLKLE

IC50: < 10 nM
SMILES: CO[C@H]1C[C@@H]2CC[C@@H](C)[C@@](O)(O2)C(=O)C(=O)N2CCCC[C@H]2C(=O)O[C@H]([C@H](C)C[C@@H]2CC[C@@H](OCCO)[C@H](OC)C2)CC(=O)[C@H](C)/C=C(\C)[C@@H](O)[C@@H](OC)C(=O)[C@H](C)C[C@H](C)/C=C/C=C/C=C/1C [everolimus]
